Measurements as given in patent US20140288182A1, “USE OF CARBAMIDE PEROXIDE INJECTION IN PREPARATION OF VIRUS INACTIVATION MEDICAMENTS FOR TREATING DISEASES” (Wuxi Zhaozhen Radiation Technology Co., Ltd., priority 2013, published 2014).

Tested on: thoracic aorta blood vessel plaque
Assay: New-Zealand rabbit model of blood vessel plaque (CTA angiography and MR)
Assay type: in vivo
Method: The New-Zealand rabbit model of blood vessel plaque is a common animal experimental model. […] The blood vessel plaque was taken as the target region and positioned, and a radiotherapy plan was made. 1.5 h after intraperitoneal injection of 5-ALA (80 mg/kg body weight), the substrate was intravenously dripped, and the irradiation to the blood vessel plaque was performed once with 5 Gy. The New-Zealand rabbit was continually fed for 1 week.

NCC(=O)CCC(=O)O [5-ALA]
regression of thoracic aorta blood vessel plaque (CTA angiography and MR detection) (5-ALA 80 mg/kg intraperitoneal 1.5 h before, substrate intravenously dripped, plaque irradiated once with 5 Gy, examined on the seventh day after treatment): completely disappeared | plaque in the blood vessel of a rabbit by CT examination (FIG. 3) (photosensitizer given orally, irradiated with high energy X-ray, CT examination 5 days later): eliminated
